Legend:
[1] = Hygroscopicity / deliquescence of the unformulated drug; type: physicochemical
From the text: It is particularly surprising that such a hygroscopic and deliquescent drug can be formulated in accordance with the present invention as an acceptably non-hygroscopic composition.

[2] = Solubility of the drug in matrix forming agents HPMC and PEG; type: physicochemical

| Hygroscopicity and deliquescence [1] | Solubility in HPMC and PEG [2] | Compound |
| --- | --- | --- |
| extremely hygroscopic and deliquescent | low solubility | CC(=N)NCCSC[C@](C)(N)C(=O)O [S-[2-[(1-iminoethyl)amino]ethyl]-2-methyl-L-cysteine] |
| extremely hygroscopic and deliquescent | – | S-[2-[(1-iminoethyl)amino]ethyl]-2-methyl-L-cysteine dihydrochoride [Compound A] |
